Source: the supplement of paper PMC10627819

Tests used:
S. pneumoniae D39V [1] = assay: fitness (endpoint OD595 vs no drug) (fraction); higher = more growth
Procedure, shortened: (§1)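 Each well of a 384-well plate received 30 µl of culture at OD595 0.01, or 55 µl for S. pneumoniae. TSB, LB Lennox or CY served as media at 37 °C. OD595 was taken every 30 min for 14 h and corrected by subtracting the first reading. Fitness is the optical density at stationary-phase entry divided by the robust mean of no-drug controls, capped at 1.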

B. subtilis 168 [2] = assay: as above
Procedure, shortened: as §1

S. pneumoniae D39V [3] = assay: Bliss interaction score (quartile over a dose matrix) (fitness difference); higher = more antagonism (negative = synergy)
Procedure, shortened: (§2)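 Each plate was normalised to the robust mean of its own no-drug wells, using OD595 at entry into stationary phase, with values capped at 1. This normalised growth is the fitness value. The Bliss score is the difference between observed and product-expected fitness, with single-drug fitness inferred from the combination data and quartiles taken over technical, biological and donor/recipient replicates.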

S. aureus Newman = assay: as above
Procedure, shortened: as §2

S. aureus DSM 20231 [4] = assay: as above
Procedure, shortened: as §2

B. subtilis 168 [5] = assay: as above
Procedure, shortened: as §2

S. aureus DSM 20231 [6] = assay: fitness (endpoint OD595 vs no drug) (fraction); higher = more growth
Procedure, shortened: as §1
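For Bliss interaction score (quartile over a dose matrix) in this document: first quartile when negative (synergy) and third quartile when positive (antagonism).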

CCCCCCCCCC(=O)N[C@@H](Cc1c[nH]c2ccccc12)C(=O)N[C@H](CC(N)=O)C(=O)N[C@@H](CC(=O)O)C(=O)N[C@@H]1C(=O)NCC(=O)N[C@@H](CCCN)C(=O)N[C@@H](CC(=O)O)C(=O)N[C@H](C)C(=O)N[C@@H](CC(=O)O)C(=O)NCC(=O)N[C@H](CO)C(=O)N[C@@H]([C@H](C)CC(=O)O)C(=O)N[C@@H](CC(=O)c2ccccc2N)C(=O)O[C@@H]1C [Daptomycin] + C[C@H]1COc2c(N3CCN(C)CC3)c(F)cc3c(=O)c(C(=O)O)cn1c23 [Levofloxacin]
Conditions	fitness
B. subtilis 168 [2], first compound 0.125 µg/mL, partner 0.0312 µg/mL	0.0386
B. subtilis 168 [2], first compound 0.125 µg/mL, partner 0.0625 µg/mL	0.0435
B. subtilis 168 [2], first compound 0.125 µg/mL, partner 0.125 µg/mL	0.0465
B. subtilis 168 [2], first compound 0.25 µg/mL, partner 0.002 µg/mL	0.949
B. subtilis 168 [2], first compound 0.25 µg/mL, partner 0.0039 µg/mL	0.95
B. subtilis 168 [2], first compound 0.25 µg/mL, partner 0.0312 µg/mL	0.043
B. subtilis 168 [2], first compound 0.25 µg/mL, partner 0.0625 µg/mL	0.0534
B. subtilis 168 [2], first compound 0.25 µg/mL, partner 0.125 µg/mL	0.073
B. subtilis 168 [2], first compound 0.5 µg/mL, partner 0.002 µg/mL	0.915
B. subtilis 168 [2], first compound 0.5 µg/mL, partner 0.0039 µg/mL	0.904
B. subtilis 168 [2], first compound 0.5 µg/mL, partner 0.0312 µg/mL	0.0448
B. subtilis 168 [2], first compound 0.5 µg/mL, partner 0.0625 µg/mL	0.071
B. subtilis 168 [2], first compound 0.5 µg/mL, partner 0.125 µg/mL	0.0639
S. pneumoniae D39V [1], first compound 1 µg/mL, partner 0.1725 µg/mL	0.909
S. pneumoniae D39V [1], first compound 1 µg/mL, partner 0.2 µg/mL	0.867
S. pneumoniae D39V [1], first compound 1 µg/mL, partner 0.345 µg/mL	0.794
S. pneumoniae D39V [1], first compound 1 µg/mL, partner 0.4 µg/mL	0.678
S. pneumoniae D39V [1], first compound 1 µg/mL, partner 0.69 µg/mL	0.531
S. pneumoniae D39V [1], first compound 1 µg/mL, partner 0.8 µg/mL	0.132
S. pneumoniae D39V [1], first compound 2 µg/mL, partner 0.1725 µg/mL	0.917
S. pneumoniae D39V [1], first compound 2 µg/mL, partner 0.2 µg/mL	0.88
S. pneumoniae D39V [1], first compound 2 µg/mL, partner 0.345 µg/mL	0.813
S. pneumoniae D39V [1], first compound 2 µg/mL, partner 0.4 µg/mL	0.675
S. pneumoniae D39V [1], first compound 2 µg/mL, partner 0.69 µg/mL	0.366
S. pneumoniae D39V [1], first compound 2 µg/mL, partner 0.8 µg/mL	0.165
S. pneumoniae D39V [1], first compound 4 µg/mL, partner 0.1725 µg/mL	0.949
S. pneumoniae D39V [1], first compound 4 µg/mL, partner 0.2 µg/mL	0.818
S. pneumoniae D39V [1], first compound 4 µg/mL, partner 0.345 µg/mL	0.86
S. pneumoniae D39V [1], first compound 4 µg/mL, partner 0.4 µg/mL	0.551
S. pneumoniae D39V [1], first compound 4 µg/mL, partner 0.69 µg/mL	0.615
S. pneumoniae D39V [1], first compound 4 µg/mL, partner 0.8 µg/mL	0.133

fitness, B. subtilis 168 [2], one replicate
Conditions	first compound 0.125 µg/mL	first compound 0.25 µg/mL	first compound 0.5 µg/mL	first compound 1 µg/mL
partner 0.001 µg/mL	0.992	≥ 1	0.978	–
partner 0.002 µg/mL	0.949	–	–	0.753
partner 0.0039 µg/mL	0.891	–	–	0.742
partner 0.0078 µg/mL	–	0.829	0.882	0.723

Conditions	Bliss interaction score
B. subtilis 168 [5]	0.0436
S. aureus DSM 20231 [4]	-0.0494
S. aureus Newman	-0.0469
S. pneumoniae D39V [3]	-0.18

CO/N=C(\C(=O)N[C@@H]1C(=O)N2C(C(=O)[O-])=C(C[N+]3(C)CCCC3)CS[C@H]12)c1csc(N)n1 [Cefepime] + COc1cc(Cc2cnc(N)nc2N)cc(OC)c1OC [Trimethoprim]
fitness, S. aureus DSM 20231 [6]
Conditions	partner 0.125 µg/mL	partner 0.25 µg/mL	partner 0.5 µg/mL	partner 1 µg/mL
first compound 0.125 µg/mL	0.629	0.556	0.272	0.0708
first compound 0.25 µg/mL	0.631	0.573	–	0.0608
first compound 0.5 µg/mL	0.679	0.612	–	0.0509

Conditions	Bliss interaction score
B. subtilis 168 [5]	0.0732
S. aureus DSM 20231 [4]	0.0714
S. aureus Newman	0.0778
S. pneumoniae D39V [3]	0.255

C[C@H]1COc2c(N3CCN(C)CC3)c(F)cc3c(=O)c(C(=O)O)cn1c23 [Levofloxacin] + COc1c(N2C[C@@H]3CCCN[C@@H]3C2)c(F)cc2c(=O)c(C(=O)O)cn(C3CC3)c12 [Moxifloxacin]
Conditions	fitness
B. subtilis 168 [2], first compound 0.002 µg/mL, partner 0.0312 µg/mL	0.0439
B. subtilis 168 [2], first compound 0.002 µg/mL, partner 0.0625 µg/mL	0.0254
B. subtilis 168 [2], first compound 0.002 µg/mL, partner 0.125 µg/mL	0.0489
B. subtilis 168 [2], first compound 0.0039 µg/mL, partner 0.0312 µg/mL	0.0651
B. subtilis 168 [2], first compound 0.0039 µg/mL, partner 0.0625 µg/mL	0.0551
B. subtilis 168 [2], first compound 0.0039 µg/mL, partner 0.125 µg/mL	0.0554
B. subtilis 168 [2], first compound 0.0078 µg/mL, partner 0.0312 µg/mL	0.0472
B. subtilis 168 [2], first compound 0.0078 µg/mL, partner 0.0625 µg/mL	0.0515
B. subtilis 168 [2], first compound 0.0078 µg/mL, partner 0.125 µg/mL	0.0578
B. subtilis 168 [2], first compound 0.0312 µg/mL, partner 2 µg/mL	0.0397
B. subtilis 168 [2], first compound 0.0312 µg/mL, partner 4 µg/mL	0.0257
B. subtilis 168 [2], first compound 0.0312 µg/mL, partner 8 µg/mL	0.0215
B. subtilis 168 [2], first compound 0.0625 µg/mL, partner 2 µg/mL	0.0387
B. subtilis 168 [2], first compound 0.0625 µg/mL, partner 4 µg/mL	0.0417
B. subtilis 168 [2], first compound 0.0625 µg/mL, partner 8 µg/mL	0.0241
B. subtilis 168 [2], first compound 0.125 µg/mL, partner 2 µg/mL	0.0455
B. subtilis 168 [2], first compound 0.125 µg/mL, partner 4 µg/mL	0.0375
B. subtilis 168 [2], first compound 0.125 µg/mL, partner 8 µg/mL	0.0205
S. pneumoniae D39V [1], first compound 0.1725 µg/mL, partner 0.0037 µg/mL	0.882
S. pneumoniae D39V [1], first compound 0.1725 µg/mL, partner 0.0075 µg/mL	0.848
S. pneumoniae D39V [1], first compound 0.1725 µg/mL, partner 0.015 µg/mL	0.887
S. pneumoniae D39V [1], first compound 0.2 µg/mL, partner 0.005 µg/mL	0.899
S. pneumoniae D39V [1], first compound 0.2 µg/mL, partner 0.01 µg/mL	0.943
S. pneumoniae D39V [1], first compound 0.2 µg/mL, partner 0.02 µg/mL	0.857
S. pneumoniae D39V [1], first compound 0.345 µg/mL, partner 0.0037 µg/mL	0.723
S. pneumoniae D39V [1], first compound 0.345 µg/mL, partner 0.0075 µg/mL	0.69
S. pneumoniae D39V [1], first compound 0.345 µg/mL, partner 0.015 µg/mL	0.738
S. pneumoniae D39V [1], first compound 0.4 µg/mL, partner 0.005 µg/mL	0.842
S. pneumoniae D39V [1], first compound 0.4 µg/mL, partner 0.01 µg/mL	0.85
S. pneumoniae D39V [1], first compound 0.4 µg/mL, partner 0.02 µg/mL	0.77
S. pneumoniae D39V [1], first compound 0.69 µg/mL, partner 0.0037 µg/mL	0.418
S. pneumoniae D39V [1], first compound 0.69 µg/mL, partner 0.0075 µg/mL	0.391
S. pneumoniae D39V [1], first compound 0.69 µg/mL, partner 0.015 µg/mL	0.489

B. subtilis 168 [2], first compound 0.001 µg/mL, one replicate
Conditions	fitness
partner 0.0312 µg/mL	0.575
partner 0.0625 µg/mL	0.0212
partner 0.125 µg/mL	0

Conditions	Bliss interaction score
B. subtilis 168 [5]	0.0308
S. aureus DSM 20231 [4]	-0.0852
S. aureus Newman	-0.201
S. pneumoniae D39V [3]	-0.0874
